Read-outs that look alike come from different tables or passages of the source.
Columns and labels:
[1] = biological target: T1, PD-L1 (Homo sapiens, UniProt Q9NZQ7); assay: PD-L1 relative quantification by flow cytometry in HT-29 cells; assay type: cell-based; conditions: for inhibition rate of PD-L1: HT-29, total PD-L1, dose not stated; for total PD-L1 (%) expression: HT-29 cells, 24 h, relative to DMSO control = 100
T1 construct: assess the effect of our new ureas on these two proteins only on the HT-29 cancer cell line through the use of flow cytometry; endogenous in cells; host or cells: HT-29
Experimental: The cells were incubated for a period of time of one day with doses of each of the selected compounds at two different doses: 20 and 100 µM concentrations.
The effects of the compounds on the target in the cancer cell lines compounds were tested using 20 and 100 µM doses. For that, 10^5 cells per well were seeded on a 12-well plate for 24 h with the corresponding dose of the tested compound in a total volume of 500 μL of cell media. To determine the total PD-L1 and VEGFR-2, the cells were collected and fixed with 4% in a PBS of formaldehyde. After this, a treatment with 0.5% in PBS Triton^TM X-100 permeabilized the membranes. Finally, the cells were treated with FITC Mouse monoclonal Anti-Human VEGFR-2 (ab184903) and Alexa Fluor® 647 Rabbit monoclonal Anti-PD-L1 (ab215251).
To determine surface PD-L1 and VEGFR-2, the assay used was similar to the above but avoided the permeabilization step (Triton^TM X-100).

[2] = tested on: A-549 (pulmonary adenocarcinoma); assay: MTT cell proliferation assay, A-549; assay type: cell-based; conditions: Homo sapiens, read-out: IC50 A-549
Experimental: After the supernatant was discarded, we solved the formazan crystal in 100 µL of DMSO. The absorbance was then registered at 550 nm using a plate lector. For all concentrations of any compound, cell viability was expressed as the percentage of the ratio between the mean absorbance of the treated cells and the mean absorbance of the untreated cells. Three to five experiments were performed to establish the IC50 values (i.e., concentration half inhibiting cell proliferation, we used GraphPad Prism 7 software).

[3] = tested on: HT-29 cells co-cultured with THP-1; assay: Cancer cell proliferation in co-cultures of HT-29 and THP-1; assay type: cell-based, human; conditions: 100 μM
Experimental: To establish the potential of the selected compounds as immunomodulator agents, we studied the effect of the selected compounds on HT-29 cell proliferation when co-cultured with human monocytic leukemia cell line THP-1. For the study, we used different proportions of cancer and immune cells. Standard protocol proportions were 1:5 cancer/immune cells. We include a test using a 2:1 proportion of HT-29 cells to THP-1 cells. The tests were performed for two periods of time: 24 and 48 h, using 100 μM doses of the selected compounds and BMS-8 as the reference compound.
To determine the action of the compounds on cancer cell proliferation in co-culture with immune cells, 10^5 or 2 × 10^5 of the HT-29 cells line were seeded in each well of 12-well plates and left at 37 °C for 24 h. Then, the cancer cells were treated with IFN-γ (10 ng/mL; human, Invitrogen®, Waltham, MA, USA) containing 5 × 10^5 or 10^5, respectively, of THP-1 cells per well and the corresponding compound at 100 μM or DMSO for the positive control. After 24 h/48 h of incubation, the supernatants were collected to establish the alive THP-1 cells using FSC and SCC flow cytometry. In addition, cancer cells were collected with trypsin, fixed with 4% in PBS paraformaldehyde and counted using flow cytometry.

[4] = tested on: Jurkat T-cells; assay: MTT cell proliferation assay, Jurkat T-cells; assay type: cell-based; conditions: Homo sapiens, Jurkat, 48 h treatment
Experimental: The action on cell proliferation caused by our developed compounds was studied using an MTT assay using the human tumor cell lines of HT-29 (colon adenocarcinoma) and A-549 (pulmonary adenocarcinoma), as well as toward the non-tumor cell line HEK-293 (human embryonic kidney cells), Jurkat T-cells and human microvessel endothelial cells (HMEC-1).
In general, 5 × 10^3 (HT-29, A549, HMEC-1, Jurkat and HEK-293) cells per well were seeded in 96-well plates with 1:1 dilutions of the compounds in a volume of 100 μL of the cell media. The 3-(4,5-dimethylthiazol-2-yl)-2,5-diphenyltetrazolium bromide (MTT; Sigma Chemical Co.) dye exclusion assay was performed, and after 48 h (37 °C, 5% CO2 in a humid atmosphere), 10 μL of MTT (5 mg/mL in phosphate-buffered saline, PBS) was added to each well and incubated for 3 h at 37 °C. After the supernatant was discarded, we solved the formazan crystal in 100 µL of DMSO. The absorbance was then registered at 550 nm using a plate lector. For all concentrations of any compound, cell viability was expressed as the percentage of the ratio between the mean absorbance of the treated cells and the mean absorbance of the untreated cells. Three to five experiments were performed to establish the IC50 values (i.e., concentration half inhibiting cell proliferation, we used GraphPad Prism 7 software).

T1 sequence (Q9NZQ7 19-290): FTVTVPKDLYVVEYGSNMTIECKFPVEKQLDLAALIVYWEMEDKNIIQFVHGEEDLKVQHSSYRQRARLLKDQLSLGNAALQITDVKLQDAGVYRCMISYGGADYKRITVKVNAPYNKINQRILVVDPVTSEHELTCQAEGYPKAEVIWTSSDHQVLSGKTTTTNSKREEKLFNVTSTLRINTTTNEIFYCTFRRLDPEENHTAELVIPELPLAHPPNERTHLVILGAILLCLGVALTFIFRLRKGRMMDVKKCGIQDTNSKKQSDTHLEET

| inhibition rate of PD-L1 [1] | total PD-L1 (%) expression ([1]; 20 μM) [%] | total PD-L1 (%) expression ([1]; 100 μM) [%] | melting point [°C] | IC50 ([2]; A549, MTT, 48 h treatment) [µM] | IC50 ([4]; 48 h) [µM] | SMILES | IC50 ([2]; A549, 48 h) [µM] | HT-29 cancer cell proliferation in co-culture ([3]; 1:5 HT-29/THP-1, 24 h) | HT-29 cancer cell proliferation in co-culture ([3]; 1:5 HT-29/THP-1, 48 h) | HT-29 cancer cell proliferation in co-culture ([3]; 2:1 HT-29/THP-1, 24 h) | HT-29 cancer cell proliferation in co-culture ([3]; 2:1 HT-29/THP-1, 48 h) | IC50 [4] [µM] |
| --- | --- | --- | --- | --- | --- | --- | --- | --- | --- | --- | --- | --- |
| 30% | 70 ± 4 | 222 ± 69 | 181 to 183 | > 100 | > 100 | COc1ccc(CCCc2cccc(NC(=O)Nc3ccc(F)cc3)c2)cc1 [C.3] | – | 78 ± 8 | 64 ± 3 | 67 ± 9 | 57 ± 5 | – |
| around 75% | 25 ± 5 | 96 ± 1 | 181 to 183 | 1.2 ± 0.2 | > 100 | COc1ccc(CCCc2cccc(NC(=O)Nc3ccc(OC)cc3)c2)cc1 [C.12] | – | 84 ± 2 | 67 ± 11 | 93 ± 8 | 89 ± 10 | – |
| 50% | 45 ± 11 | 145 ± 8 | 82 to 85 | > 100 | > 100 | COc1ccc(CCCc2cccc(NC(=O)Nc3ccccc3OC)c2)cc1 [C.14] | – | 64 ± 14 | 68 ± 8 | 82 ± 7 | 58 ± 5 | – |

| SMILES | inhibition rate of PD-L1 [1] | total PD-L1 (%) expression ([1]; 20 μM) [%] | total PD-L1 (%) expression ([1]; 100 μM) [%] | melting point [°C] | IC50 ([2]; A549, MTT, 48 h treatment) [µM] | IC50 ([4]; 48 h) [µM] | IC50 ([2]; A549, 48 h) [µM] | HT-29 cancer cell proliferation in co-culture ([3]; 1:5 HT-29/THP-1, 24 h) | HT-29 cancer cell proliferation in co-culture ([3]; 1:5 HT-29/THP-1, 48 h) | HT-29 cancer cell proliferation in co-culture ([3]; 2:1 HT-29/THP-1, 24 h) | HT-29 cancer cell proliferation in co-culture ([3]; 2:1 HT-29/THP-1, 48 h) | IC50 [4] [µM] |
| --- | --- | --- | --- | --- | --- | --- | --- | --- | --- | --- | --- | --- |
| COc1ccc(CCCc2cccc(NC(=O)Oc3ccccc3)c2)cc1 [C.1] | 30% | 70 ± 16 | 91 ± 7 | 89 to 91 | – | – | > 100 | 48 ± 8 | 52 ± 3 | 70 ± 8 | 66 ± 8 | > 100 |

Reference: article PMC10302582, “Unveiling the Potential of BenzylethyleneAryl–Urea Scaffolds for the Design of New Onco Immunomodulating Agents” (Pharmaceuticals, 2023)
